The target of one assay is T1, HCV polymerase (Hepatitis C virus genotype 1b, UniProt Q9WMX2).
T1 construct: (His)6 (C)
The experiment in a line: biochemical. As to conditions: NS5B polymerase IC50 μM, polymerase assay of Biological Example 1.
In turn, `CCOP(C)(=O)CCCCN(c1nc2oc(-c3ccc(C)cc3)c(C(=O)NC)c2cc1C1CC1)S(C)(=O)=O` (centres unmarked) [Example 23.99993, ethyl 4-(N-(5-cyclopropyl-3-(methylcarbamoyl)-2-p-tolylfuro[2,3-b]pyridin-6-yl)methylsulfonamido)butyl (methyl)phosphinate] gave an IC50 of 0.011 µM. Same read-out and setting: to `CNC(=O)c1c(-c2ccc(C)cc2)oc2nc(N(CCCCP(C)(=O)O)S(C)(=O)=O)c(C3CC3)cc12` [Example 23.99999, 4-(N-(5-cyclopropyl-3-(methylcarbamoyl)-2-p-tolylfuro[2,3-b]pyridin-6-yl)methylsulfonamido)butyl (methyl)phosphinic acid] belongs 0.006 µM. `CCOP(C)(=O)CCCCN(c1nc2oc(-c3ccc(CC)cc3)c(C(=O)NC)c2cc1I)S(C)(=O)=O` (centres unmarked) [Example 23.9991, ethyl 4-(N-(2-(4-ethylphenyl)-5-iodo-3-(methylcarbamoyl)furo[2,3-b]pyridin-6-yl)methylsulfonamido) butyl(methyl)phosphinate] yielded an IC50 of 0.026 µM. Molecule `CCc1ccc(-c2oc3nc(N(CCCCCP(C)(=O)O)S(C)(=O)=O)c(I)cc3c2C(=O)NC)cc1` [Example 23.9997, 5-(N-(2-(4-ethylphenyl)-5-iodo-3-(methylcarbamoyl)furo[2,3-b]pyridin-6-yl)methylsulfonamido)pentyl (methyl)phosphinic acid] registered an IC50 of 0.012 µM.

Staying with this assay, now noted: polymerase assay of Biological Example 1; read-out: NS5B polymerase IC50.
Regarding `CNC(=O)c1c(-c2ccc(C)cc2)oc2nc(N(CCCCC3(C(=O)O)CCOCC3)S(C)(=O)=O)c(C3CC3)cc12` [Example 29.95, 4-(4-(N-(5-cyclopropyl-3-(methylcarbamoyl)-2-p-tolylfuro[2,3-b]pyridin-6-yl)methylsulfonamido)butyl) tetrahydro-2H-pyran-4-carboxylic acid], the IC50 came out at 0.003 µM. The same measure, in the same setting: in the case of `CNC(=O)c1c(-c2ccc(C)cc2)oc2nc(N(CCCCCCCC(=O)O)S(C)(=O)=O)c(C3CC3)cc12` [Example 29.991, 8-(N-(5-cyclopropyl-3-(methylcarbamoyl)-2-p-tolylfuro[2,3-b]pyridin-6-yl)methylsulfonamido) octanoic acid] it was 0.004 µM; in that of `CNC(=O)c1c(-c2ccc(C)cc2)oc2nc(N(CCCC3(C(=O)O)COC3)S(C)(=O)=O)c(C3CC3)cc12` [Example 29.96, 3-(3-(N-(5-cyclopropyl-3-(methylcarbamoyl)-2-p-tolylfuro[2,3-b]pyridin-6-yl)methylsulfonamido)propyl) oxetane-3-carboxylic acid], 0.005 µM; in that of `CNC(=O)c1c(-c2ccc(F)cc2)oc2nc(N(CC3CCCN(C(=O)OC(C)(C)C)C3)S(C)(=O)=O)c(I)cc12` (centres unmarked) [Example 18.92, tert-butyl 3-((N-(2-(4-fluorophenyl)-5-iodo-3-(methylcarbamoyl)furo[2,3-b]pyridin-6-yl)methylsulfonamido)methyl)piperidine-1-carboxylate], 1.02 µM. With `CCc1ccc(-c2oc3nc(N(CCCC(C)(CCOC)C(=O)O)S(C)(=O)=O)c(C4CC4)cc3c2C(=O)NC)cc1` (centres unmarked) [Example 42, 5-(N-(5-Cyclopropyl-2-(4-ethylphenyl)-3-(methylcarbamoyl)furo[2,3-b]pyridin-6-yl)methylsulfonamido)-2-(2-methoxyethyl)-2-methylpentanoic acid], the IC50 is 0.002 µM. On the same count and under the same terms, to `CCc1ccc(-c2oc3nc(N(CCCCC4(C(=O)O)CCOCC4)S(C)(=O)=O)c(C4CC4)cc3c2C(=O)NC)cc1` [Example 29.94, 4-(4-(N-(5-cyclopropyl-2-(4-ethylphenyl)-3-(methylcarbamoyl)furo[2,3-b]pyridin-6-yl)methylsulfonamido)butyl) tetrahydro-2H-pyran-4-carboxylic acid] belongs 0.003 µM; to `CNC(=O)c1c(-c2ccc(F)cc2)oc2nc(N(CCCC#N)S(C)(=O)=O)c(I)cc12` [Example 18.2, 6-(N-(3-cyanopropyl)methylsulfonamido)-2-(4-fluorophenyl)-5-iodo-N-methylfuro[2,3-b]pyridine-3-carboxamide], 0.061 µM.

Regarding `CNC(=O)c1c(-c2ccc(F)cc2)oc2nc(N(CCCCC(=O)OC)S(C)(=O)=O)c(I)cc12` [Example 18, 5-{[2-(4-Fluoro-phenyl)-5-iodo-3-methylcarbamoyl-furo[2,3-b]pyridin-6-yl]-methanesulfonyl-amino}-pentanoic acid methyl ester], the IC50 was 0.115 µM. Still for that read-out and setting: in the case of `CCc1cc2c(C(=O)NC)c(-c3ccc(F)cc3)oc2nc1N(CCCCC(=O)O)S(C)(=O)=O` [Example 21.2, 5-(N-(5-ethyl-2-(4-fluorophenyl)-3-(methylcarbamoyl)furo[2,3-b]pyridin-6-yl)methylsulfonamido)pentanoic acid] it was 0.012 µM; in that of `CNC(=O)c1c(-c2ccc(F)cc2)oc2nc3c(cc12)C(C)CCCCCN3S(C)(=O)=O` (centres unmarked) [Example 37, 2-(4-Fluoro-phenyl)-11-methanesulfonyl-5-methyl-6,7,8,9,10,11-hexahydro-5H-1-oxa-11,12-diaza-cyclonona[f]indene-3-carboxylic acid methylamide], 0.048 µM; in that of `CNC(=O)c1c(-c2ccc(F)cc2)oc2nc3c(cc12)[C@H](C)C[C@H](O)CN3S(C)(=O)=O` (single isomer, unassigned) [Example 33], 0.17 µM. The same measure, in the same setting: in the case of `CCc1cc2c(C(=O)NC)c(-c3ccc(F)cc3)oc2nc1N(CCCNS(C)(=O)=O)S(C)(=O)=O` [Example 23.4, 5-ethyl-2-(4-fluorophenyl)-N-methyl-6-(N-(3-(methylsulfonamido)propyl)methylsulfonamido)furo[2,3-b]pyridine-3-carboxamide] it was 0.125 µM; in that of `CCc1cc2c(C(=O)NC)c(-c3ccc(F)cc3)oc2nc1N(CCCS(=O)(=O)C(F)(F)F)S(C)(=O)=O` [Example 23.96, 5-ethyl-2-(4-fluorophenyl)-N-methyl-6-(N-(3-(trifluoromethylsulfonyl)propyl)methylsulfonamido) furo[2,3-b]pyridine-3-carboxamide], 0.189 µM; in that of `CNC(=O)c1c(-c2ccc(C)cc2C)oc2nc(N(C)S(C)(=O)=O)c(C3CC3)cc12` [Example 2.99, 5-cyclopropyl-2-(2,4-dimethylphenyl)-N-methyl-6-(N-methylmethylsulfonamido)furo[2,3-b]pyridine-3-carboxamide], 0.071 µM. On to `CNC(=O)c1c(-c2ccc(C)cc2)oc2nc(N(CCCCCO)S(C)(=O)=O)c(I)cc12` [Example 23.99991, 6-(N-(5-hydroxypentyl)methylsulfonamido)-5-iodo-N-methyl-2-p-tolylfuro[2,3-b]pyridine-3-carboxamide], for which the half-inhibitory concentration (IC50) was determined as 0.009 µM. Regarding `CNC(=O)c1c(-c2ccc(C)cc2)oc2nc(N(CCCCCCCCCC(=O)O)S(C)(=O)=O)c(C3CC3)cc12` [Example 29.993, 10-(N-(5-cyclopropyl-3-(methylcarbamoyl)-2-p-tolylfuro[2,3-b]pyridin-6-yl)methylsulfonamido) decanoic acid], the IC50 was 0.002 µM.

Turning to `CNC(=O)c1c(-c2ccc(F)cc2)oc2nc(N(C)S(C)(=O)=O)c(I)cc12` [Example 2, 2-(4-Fluoro-phenyl)-5-iodo-6-(methanesulfonyl-methyl-amino)-furo[2,3-b]pyridine-3-carboxylic acid methylamide], the IC50 amounted to 0.163 µM. Same read-out and setting: in the case of `CNC(=O)c1c(-c2ccc(C)cc2)oc2nc(N(CCCC(C)(OC)C(=O)O)S(C)(=O)=O)c(C3CC3)cc12` (centres unmarked) [Example 29.9992, 5-(N-(5-cyclopropyl-3-(methylcarbamoyl)-2-p-tolylfuro[2,3-b]pyridin-6-yl)methylsulfonamido)-2-methoxy-2-methylpentanoic acid] it was 0.004 µM; in that of `CCc1cc2c(C(=O)NC)c(-c3ccc(F)cc3)oc2nc1N(CCCCC(C)O)S(C)(=O)=O` (centres unmarked) [Example 22.93, 5-ethyl-2-(4-fluorophenyl)-6-(N-(5-hydroxyhexyl)methylsulfonamido)-N-methylfuro[2,3-b]pyridine-3-carboxamide], 0.047 µM; in that of `CNC(=O)c1c(-c2ccc(F)cc2)oc2nc(N(C)S(C)(=O)=O)c(C(C)C(F)(F)F)cc12` (centres unmarked) [Example 6.1, 2-(4-fluorophenyl)-N-methyl-6-(N-methylmethylsulfonamido)-5-(1,1,1-trifluoropropan-2-yl)furo[2,3-b]pyridine-3-carboxamide], 0.043 µM. Regarding `CNC(=O)c1c(-c2ccc(C)cc2)oc2nc(N(CCCC[C@H](COC)C(=O)O)S(C)(=O)=O)c(C3CC3)cc12` [Example 47.5, (R)-6-(N-(5-Cyclopropyl-3-(methylcarbamoyl)-2-p-tolylfuro[2,3-b]pyridin-6-yl)methylsulfonamido)-2-(methoxymethyl)hexanoic acid], the IC50 was determined as 0.003 µM. Same read-out and setting: in the case of `CNC(=O)c1c(-c2ccc(C)cc2)oc2nc(N(CC3CCC(=O)O3)S(C)(=O)=O)c(C3CC3)cc12` (centres unmarked) [Example 29.994, 5-cyclopropyl-N-methyl-6-(N-((5-oxotetrahydrofuran-2-yl)methyl)methylsulfonamido)-2-p-tolylfuro[2,3-b]pyridine-3-carboxamide] it was 0.006 µM; in that of `CNC(=O)c1c(-c2ccc(C)cc2)oc2nc(N(CCC[C@@H](C)C(=O)N[C@H](C(=O)OC)c3ccccc3)S(C)(=O)=O)c(C3CC3)cc12` [Example 29.99997, (S)-methyl 2-((R)-5-(N-(5-cyclopropyl-3-(methylcarbamoyl)-2-p-tolylfuro[2,3-b]pyridin-6-yl)methylsulfonamido)-2-methylpentanamido)-2-phenylacetate], 0.004 µM. Regarding `CCc1cc2c(C(=O)NC)c(-c3ccc(F)cc3)oc2nc1N(CCc1cccc(OC)c1)S(C)(=O)=O` [Example 21.9, 5-ethyl-2-(4-fluorophenyl)-6-(N-(3-methoxyphenethyl)methylsulfonamido)-N-methylfuro[2,3-b]pyridine-3-carboxamide], the IC50 is 0.772 µM. Same read-out and setting: to `CCc1cc2c(C(=O)NC)c(-c3ccc(F)cc3)oc2nc1N(CCN1Cc2ccccc2S1(=O)=O)S(C)(=O)=O` [Example 22.994, 6-{[2-(1,1-Dioxo-1,3-dihydrobenzo[d]isothiazol-2-yl)-ethyl]-methanesulfonyl-amino}-5-ethyl-2-(4-fluoro-phenyl)-furo[2,3-b]pyridine-3-carboxylic acid methylamide] belongs 1.06 µM.
